# Results as given in ChEMBL document CHEMBL4507318, “Data for DCP probe BAY-985” (2021).
# How the values were obtained:
# [1] = biological target: Tyrosine-protein kinase JAK1 (Homo sapiens) (UniProt P23458)
# [2] = biological target: Misshapen-like kinase 1 (Homo sapiens) (UniProt Q8N4C8)
# [3] = biological target: Serine/threonine-protein kinase ULK1 (Homo sapiens) (UniProt O75385)
# [4] = biological target: Serine/threonine-protein kinase Chk1 (Homo sapiens) (UniProt O14757)
# [5] = biological target: Vascular endothelial growth factor receptor 3 (Homo sapiens) (UniProt P35916)
# [6] = biological target: SRSF protein kinase 3 (Homo sapiens) (UniProt Q9UPE1)
# [7] = biological target: STE20/SPS1-related proline-alanine-rich protein kinase (Homo sapiens) (UniProt Q9UEW8)
# [8] = biological target: Serine/threonine-protein kinase PAK 3 (Homo sapiens) (UniProt O75914)
# [9] = biological target: Membrane-associated tyrosine- and threonine-specific cdc2-inhibitory kinase (Homo sapiens) (UniProt Q99640)
# [10] = biological target: Tyrosine-protein kinase CSK (Homo sapiens) (UniProt P41240)
# [11] = biological target: Ephrin type-A receptor 5 (Homo sapiens) (UniProt P54756)
# [12] = system: Receptor-type tyrosine-protein kinase FLT3 (Homo sapiens), P36888 [D835H]
# [13] = system: Epidermal growth factor receptor (Homo sapiens), P00533 [UNDEFINED MUTATION]
# [14] = biological target: Mitogen-activated protein kinase kinase kinase 7 (Homo sapiens) (UniProt O43318)
# [15] = biological target: Dual specificity mitogen-activated protein kinase kinase 1 (Homo sapiens) (UniProt Q02750)
# [16] = biological target: Atypical kinase COQ8B, mitochondrial (Homo sapiens) (UniProt Q96D53)
# [17] = biological target: Serine/threonine-protein kinase PAK 2 (Homo sapiens) (UniProt Q13177)
# [18] = biological target: 5-hydroxytryptamine receptor 5A (Homo sapiens) (UniProt P47898); conditions: Compound concentration 10.0 uM
# [19] = biological target: Dual specificity mitogen-activated protein kinase kinase 6 (Homo sapiens) (UniProt P52564)
# [20] = biological target: Serine/threonine-protein kinase Nek4 (Homo sapiens) (UniProt P51957)
# [21] = biological target: Receptor-interacting serine/threonine-protein kinase 1 (Homo sapiens) (UniProt Q13546)
# [22] = system: Phosphatidylinositol 4,5-bisphosphate 3-kinase catalytic subunit alpha isoform (Homo sapiens), P42336 [M1043I]
# [23] = biological target: Cyclin-dependent kinase 11A (Homo sapiens) (UniProt Q9UQ88)
# [24] = biological target: Serine/threonine-protein kinase TAO1 (Homo sapiens) (UniProt Q7L7X3)
# [25] = biological target: Serine/threonine-protein kinase tousled-like 2 (Homo sapiens) (UniProt Q86UE8)
# [26] = biological target: BDNF/NT-3 growth factors receptor (Homo sapiens) (UniProt Q16620)
# [27] = biological target: Protein kinase C delta type (Homo sapiens) (UniProt Q05655)
# [28] = biological target: Tyrosine-protein kinase ABL1 (Homo sapiens) (UniProt P00519)
# [29] = biological target: Fibroblast growth factor receptor 2 (Homo sapiens) (UniProt P21802)
# [30] = biological target: Cyclin-dependent kinase 7 (Homo sapiens) (UniProt P50613)
# [31] = biological target: Serine/threonine-protein kinase N1 (Homo sapiens) (UniProt Q16512)
# [32] = biological target: Serine/threonine-protein kinase Sgk1 (Homo sapiens) (UniProt O00141)
# [33] = biological target: Tyrosine-protein kinase Fyn (Homo sapiens) (UniProt P06241)
# [34] = biological target: Activin receptor type-2B (Homo sapiens) (UniProt Q13705)
# [35] = biological target: Cyclin-dependent kinase 11B (Homo sapiens) (UniProt P21127)
# [36] = system: Phosphatidylinositol 4,5-bisphosphate 3-kinase catalytic subunit alpha isoform (Homo sapiens), P42336 [H1047Y]
# [37] = biological target: Receptor-type tyrosine-protein kinase FLT3 (Homo sapiens) (UniProt P36888)
# [38] = biological target: Alpha-1D adrenergic receptor (Homo sapiens) (UniProt P25100); conditions: Compound concentration 10.0 uM
# [39] = biological target: Beta-3 adrenergic receptor (Homo sapiens) (UniProt P13945); conditions: Compound concentration 10.0 uM
# [40] = biological target: Tyrosine-protein kinase receptor TYRO3 (Homo sapiens) (UniProt Q06418)
# [41] = biological target: Leukocyte tyrosine kinase receptor (Homo sapiens) (UniProt P29376)
# [42] = biological target: Phosphatidylinositol 4,5-bisphosphate 3-kinase catalytic subunit delta isoform (Homo sapiens) (UniProt O00329)
# [43] = biological target: Serine/threonine-protein kinase TNNI3K (Homo sapiens) (UniProt Q59H18)
# [44] = biological target: Mitotic checkpoint serine/threonine-protein kinase BUB1 (Homo sapiens) (UniProt O43683)
# [45] = biological target: Alpha-1A adrenergic receptor (Homo sapiens) (UniProt P35348); conditions: Compound concentration 10.0 uM
# [46] = Compound concentration 1000.0 nM
# [47] = Compound concentration 100.0 nM
# Chain of Leukocyte tyrosine kinase receptor (Homo sapiens) (P29376 whole entry, canonical isoform): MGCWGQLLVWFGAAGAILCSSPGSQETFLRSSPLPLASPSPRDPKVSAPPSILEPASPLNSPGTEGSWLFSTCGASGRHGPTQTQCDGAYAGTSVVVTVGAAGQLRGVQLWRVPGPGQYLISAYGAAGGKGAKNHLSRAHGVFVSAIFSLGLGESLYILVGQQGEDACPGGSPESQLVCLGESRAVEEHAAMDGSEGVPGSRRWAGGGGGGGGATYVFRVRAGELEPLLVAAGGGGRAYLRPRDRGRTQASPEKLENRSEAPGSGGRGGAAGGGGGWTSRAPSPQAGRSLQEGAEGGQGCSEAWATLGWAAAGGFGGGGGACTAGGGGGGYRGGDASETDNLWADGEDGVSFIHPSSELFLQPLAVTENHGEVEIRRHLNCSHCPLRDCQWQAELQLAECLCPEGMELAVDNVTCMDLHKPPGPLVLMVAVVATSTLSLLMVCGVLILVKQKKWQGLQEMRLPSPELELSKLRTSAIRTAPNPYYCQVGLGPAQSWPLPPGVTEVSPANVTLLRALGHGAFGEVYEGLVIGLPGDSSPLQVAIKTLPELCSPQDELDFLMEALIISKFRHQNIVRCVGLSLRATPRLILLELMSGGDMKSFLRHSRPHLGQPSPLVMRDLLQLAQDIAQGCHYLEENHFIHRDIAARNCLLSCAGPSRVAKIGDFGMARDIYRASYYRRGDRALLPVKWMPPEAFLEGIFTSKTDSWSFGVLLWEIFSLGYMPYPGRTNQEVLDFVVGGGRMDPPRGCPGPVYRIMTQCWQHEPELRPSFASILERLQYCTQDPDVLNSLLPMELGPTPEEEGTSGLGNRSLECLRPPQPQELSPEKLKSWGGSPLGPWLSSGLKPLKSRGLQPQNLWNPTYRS
# Chain of Vascular endothelial growth factor receptor 3 (Homo sapiens) (P35916 whole entry): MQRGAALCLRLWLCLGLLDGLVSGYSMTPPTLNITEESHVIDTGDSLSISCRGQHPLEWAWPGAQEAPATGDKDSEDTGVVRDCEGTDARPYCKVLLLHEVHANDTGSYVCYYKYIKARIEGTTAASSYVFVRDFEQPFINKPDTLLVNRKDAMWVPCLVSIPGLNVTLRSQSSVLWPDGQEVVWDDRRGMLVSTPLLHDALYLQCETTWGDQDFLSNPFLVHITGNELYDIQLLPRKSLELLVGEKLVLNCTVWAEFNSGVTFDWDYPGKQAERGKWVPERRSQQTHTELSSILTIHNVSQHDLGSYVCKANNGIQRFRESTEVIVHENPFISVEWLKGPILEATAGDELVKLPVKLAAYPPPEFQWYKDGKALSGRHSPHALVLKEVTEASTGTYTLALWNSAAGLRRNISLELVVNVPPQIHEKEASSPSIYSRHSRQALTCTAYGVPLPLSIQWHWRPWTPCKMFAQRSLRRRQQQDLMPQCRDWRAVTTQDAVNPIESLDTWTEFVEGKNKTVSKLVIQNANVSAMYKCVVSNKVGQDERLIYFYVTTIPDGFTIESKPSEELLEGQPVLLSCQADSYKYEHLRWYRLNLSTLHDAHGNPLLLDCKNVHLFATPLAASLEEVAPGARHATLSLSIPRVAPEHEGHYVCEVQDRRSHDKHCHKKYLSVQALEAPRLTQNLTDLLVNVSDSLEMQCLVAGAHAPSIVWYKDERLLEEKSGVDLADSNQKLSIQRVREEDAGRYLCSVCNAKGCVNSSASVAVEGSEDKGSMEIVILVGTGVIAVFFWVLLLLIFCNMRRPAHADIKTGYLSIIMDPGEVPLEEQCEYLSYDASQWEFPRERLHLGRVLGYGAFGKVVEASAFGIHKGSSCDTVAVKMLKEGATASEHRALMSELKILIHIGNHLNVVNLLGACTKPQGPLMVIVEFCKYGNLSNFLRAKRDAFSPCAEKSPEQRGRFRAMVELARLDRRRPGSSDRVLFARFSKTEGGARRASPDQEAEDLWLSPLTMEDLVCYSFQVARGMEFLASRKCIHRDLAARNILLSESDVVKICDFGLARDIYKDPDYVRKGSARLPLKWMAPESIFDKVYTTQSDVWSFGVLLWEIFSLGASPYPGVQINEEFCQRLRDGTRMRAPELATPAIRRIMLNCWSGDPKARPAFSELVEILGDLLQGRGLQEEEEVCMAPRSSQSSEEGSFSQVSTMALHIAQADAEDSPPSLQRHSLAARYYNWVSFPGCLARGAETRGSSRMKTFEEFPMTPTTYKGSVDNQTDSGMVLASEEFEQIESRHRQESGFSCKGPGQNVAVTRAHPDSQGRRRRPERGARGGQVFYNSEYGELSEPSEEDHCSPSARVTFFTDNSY
# Chain of Epidermal growth factor receptor (Homo sapiens), P00533 [UNDEFINED MUTATION] (P00533 whole entry, looked up, change not shown): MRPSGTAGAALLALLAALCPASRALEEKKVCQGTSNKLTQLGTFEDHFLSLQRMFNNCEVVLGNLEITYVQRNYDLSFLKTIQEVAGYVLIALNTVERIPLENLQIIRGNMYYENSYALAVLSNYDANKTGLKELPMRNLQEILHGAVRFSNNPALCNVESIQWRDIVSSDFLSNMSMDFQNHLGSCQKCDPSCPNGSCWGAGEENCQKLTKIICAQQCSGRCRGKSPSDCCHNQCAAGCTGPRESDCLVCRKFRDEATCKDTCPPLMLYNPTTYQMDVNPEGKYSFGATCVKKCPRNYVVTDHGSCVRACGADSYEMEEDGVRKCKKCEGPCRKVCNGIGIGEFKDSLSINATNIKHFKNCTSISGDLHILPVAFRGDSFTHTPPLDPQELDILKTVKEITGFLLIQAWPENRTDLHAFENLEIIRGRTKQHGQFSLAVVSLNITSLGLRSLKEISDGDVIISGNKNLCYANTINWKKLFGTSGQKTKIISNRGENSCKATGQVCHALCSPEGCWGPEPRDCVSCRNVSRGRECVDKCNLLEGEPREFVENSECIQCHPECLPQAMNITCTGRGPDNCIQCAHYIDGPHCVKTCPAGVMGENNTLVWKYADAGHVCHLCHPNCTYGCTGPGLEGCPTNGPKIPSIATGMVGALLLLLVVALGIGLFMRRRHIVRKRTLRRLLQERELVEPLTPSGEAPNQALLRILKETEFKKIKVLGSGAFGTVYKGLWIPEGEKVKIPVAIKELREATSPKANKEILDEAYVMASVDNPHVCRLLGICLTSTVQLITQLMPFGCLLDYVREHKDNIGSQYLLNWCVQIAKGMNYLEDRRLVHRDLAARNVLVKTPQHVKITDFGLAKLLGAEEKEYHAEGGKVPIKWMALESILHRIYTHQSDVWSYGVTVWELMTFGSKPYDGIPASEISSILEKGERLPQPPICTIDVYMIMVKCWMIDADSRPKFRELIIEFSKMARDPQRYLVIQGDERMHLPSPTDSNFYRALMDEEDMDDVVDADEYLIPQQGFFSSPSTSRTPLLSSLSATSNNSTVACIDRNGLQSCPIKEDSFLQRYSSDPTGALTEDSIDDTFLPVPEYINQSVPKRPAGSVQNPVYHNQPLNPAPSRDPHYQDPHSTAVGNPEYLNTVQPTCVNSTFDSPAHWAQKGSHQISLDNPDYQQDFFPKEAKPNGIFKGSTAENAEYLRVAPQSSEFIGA
# Chain of Protein kinase C delta type (Homo sapiens) (Q05655 whole entry, looked up): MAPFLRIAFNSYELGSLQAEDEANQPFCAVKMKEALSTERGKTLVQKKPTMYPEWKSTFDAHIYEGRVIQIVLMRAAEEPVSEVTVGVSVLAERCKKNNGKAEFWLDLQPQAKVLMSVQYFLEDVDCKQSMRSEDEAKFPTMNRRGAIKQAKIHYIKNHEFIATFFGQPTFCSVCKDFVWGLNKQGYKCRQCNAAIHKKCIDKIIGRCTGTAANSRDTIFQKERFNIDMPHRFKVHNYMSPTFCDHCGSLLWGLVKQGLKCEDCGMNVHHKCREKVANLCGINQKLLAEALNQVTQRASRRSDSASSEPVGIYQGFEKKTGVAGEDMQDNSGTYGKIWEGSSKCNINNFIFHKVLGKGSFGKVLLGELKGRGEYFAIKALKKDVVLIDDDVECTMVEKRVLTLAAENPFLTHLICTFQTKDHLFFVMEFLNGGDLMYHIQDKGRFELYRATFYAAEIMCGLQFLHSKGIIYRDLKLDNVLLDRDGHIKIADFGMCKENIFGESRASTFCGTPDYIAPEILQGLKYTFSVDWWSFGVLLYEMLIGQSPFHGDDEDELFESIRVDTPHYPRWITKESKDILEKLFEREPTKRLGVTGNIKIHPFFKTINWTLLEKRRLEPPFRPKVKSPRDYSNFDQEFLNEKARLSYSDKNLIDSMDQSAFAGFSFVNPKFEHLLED
# Chain of Alpha-1D adrenergic receptor (Homo sapiens) (P25100 whole entry): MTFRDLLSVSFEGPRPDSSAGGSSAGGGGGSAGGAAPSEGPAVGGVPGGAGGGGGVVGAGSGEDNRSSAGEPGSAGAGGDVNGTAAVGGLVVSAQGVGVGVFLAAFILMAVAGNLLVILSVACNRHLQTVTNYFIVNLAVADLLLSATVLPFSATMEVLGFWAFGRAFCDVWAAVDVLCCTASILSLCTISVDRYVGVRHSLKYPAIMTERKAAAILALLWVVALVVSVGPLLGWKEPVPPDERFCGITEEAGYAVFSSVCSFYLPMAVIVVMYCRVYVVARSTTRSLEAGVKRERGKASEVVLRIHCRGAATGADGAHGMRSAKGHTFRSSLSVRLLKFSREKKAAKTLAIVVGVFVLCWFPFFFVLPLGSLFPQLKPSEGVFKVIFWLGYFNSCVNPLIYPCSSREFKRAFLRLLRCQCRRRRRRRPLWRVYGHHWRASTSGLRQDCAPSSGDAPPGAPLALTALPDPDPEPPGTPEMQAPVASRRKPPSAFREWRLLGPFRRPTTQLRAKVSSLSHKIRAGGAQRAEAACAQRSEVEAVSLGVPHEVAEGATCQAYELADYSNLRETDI
# Chain of 5-hydroxytryptamine receptor 5A (Homo sapiens) (P47898 whole entry): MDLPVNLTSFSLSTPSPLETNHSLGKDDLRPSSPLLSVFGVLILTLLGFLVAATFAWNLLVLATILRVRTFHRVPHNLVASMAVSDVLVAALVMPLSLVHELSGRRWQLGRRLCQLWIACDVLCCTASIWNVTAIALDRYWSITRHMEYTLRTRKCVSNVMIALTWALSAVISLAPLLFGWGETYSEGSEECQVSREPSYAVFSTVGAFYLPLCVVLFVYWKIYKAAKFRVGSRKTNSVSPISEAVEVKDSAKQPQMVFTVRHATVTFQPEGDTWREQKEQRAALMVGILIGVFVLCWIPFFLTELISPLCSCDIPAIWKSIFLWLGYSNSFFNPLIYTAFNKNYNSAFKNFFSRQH
smiles,measurement,setting,value
CN(C)c1ncnc(-c2ccc3nc(Nc4cc(CN5CCN(C(=O)CC(F)(F)F)CC5)ccn4)[nH]c3c2)c1Cl [BAY-440],residual activity,[1]; [46],93%
same,residual activity,[2]; [46],57%
same,residual activity,[3]; [46],75%
same,residual activity,[4]; [46],97%
same,residual activity,[5]; [46],63%
same,residual activity,[6]; [46],100%
same,residual activity,[7]; [46],69%
same,residual activity,[8]; [46],81%
same,residual activity,[9]; [46],75%
same,residual activity,[10]; [46],84%
same,residual activity,[11]; [46],100%
same,residual activity,[12]; [46],42%
same,residual activity,[13]; [46],88%
same,residual activity,[14]; [46],74%
same,residual activity,[15]; [46],78%
same,residual activity,[16]; [46],90%
same,residual activity,[17]; [46],100%
same,inhibition,[18],23.6%
same,residual activity,[19]; [46],92%
same,residual activity,[20]; [46],84%
same,residual activity,[21]; [46],93%
same,residual activity,[22]; [46],56%
same,residual activity,[23]; [46],100%
same,residual activity,[24]; [46],77%
same,residual activity,[25]; [46],100%
same,residual activity,[26]; [46],63%
same,residual activity,[27]; [46],100%
same,residual activity,[28]; [46],26%
same,residual activity,[29]; [46],100%
same,residual activity,[30]; [46],80%
same,residual activity,[31]; [46],100%
same,residual activity,[32]; [46],37%
same,residual activity,[33]; [46],68%
same,residual activity,[34]; [46],100%
same,residual activity,[35]; [46],100%
same,residual activity,[36]; [46],74%
same,residual activity,[37]; [46],71%
same,inhibition,[38],20.8%
same,inhibition,[39],4.42%
same,residual activity,[40]; [46],100%
same,residual activity,[41]; [46],88%
same,residual activity,[42]; [46],67%
same,residual activity,[43]; [46],50%
same,residual activity,[44]; [46],94%
same,inhibition,[45],12.8%
C[C@H](c1ccnc(Nc2nc3ccc(-c4cc(N(C)C)ncn4)cc3[nH]2)c1)N1CCN(C(=O)CC(F)(F)F)CC1 [BAY-985],residual activity,[1]; [47],92%
same,residual activity,[2]; [47],94%
same,residual activity,[3]; [47],95%
same,residual activity,[4]; [47],87%
same,residual activity,[5]; [47],92%
same,residual activity,[6]; [47],100%
same,residual activity,[7]; [47],100%
same,residual activity,[8]; [47],100%
same,residual activity,[9]; [47],83%
same,residual activity,[10]; [47],100%
same,residual activity,[11]; [47],81%
same,residual activity,[12]; [47],71%
same,residual activity,[13]; [47],86%
same,residual activity,[14]; [47],85%
same,residual activity,[15]; [47],99%
same,residual activity,[16]; [47],79%
same,residual activity,[17]; [47],68%
same,inhibition,[18],11.9%
same,residual activity,[19]; [47],96%
same,residual activity,[20]; [47],100%
same,residual activity,[21]; [47],95%
same,residual activity,[22]; [47],84%
same,residual activity,[23]; [47],84%
same,residual activity,[24]; [47],100%
same,residual activity,[25]; [47],99%
same,residual activity,[26]; [47],100%
same,residual activity,[27]; [47],100%
same,residual activity,[28]; [47],89%
same,residual activity,[29]; [47],100%
same,residual activity,[30]; [47],93%
same,residual activity,[31]; [47],100%
same,residual activity,[32]; [47],94%
same,residual activity,[33]; [47],79%
same,residual activity,[34]; [47],81%
same,residual activity,[35]; [47],100%
same,residual activity,[36]; [47],100%
same,residual activity,[37]; [47],95%
same,inhibition,[38],20.2%
same,inhibition,[39],30.4%
same,residual activity,[40]; [47],96%
same,residual activity,[41]; [47],100%
same,residual activity,[42]; [47],100%
same,residual activity,[43]; [47],59%
same,residual activity,[44]; [47],95%
same,inhibition,[45],11.9%
